In patent US4000297A, “N-p-chlorobenzoyl tryptophane, salts and compositions thereof” (priority 1971, dated 1976):
Structures can show the parent of a compound that is named as a salt. Where two headings read alike, the source gives them in different places.

How the values were obtained:
[1] = tested on: transit through the stomach and intestine; experiment: Anti-spastic activity, vegetable carbon (charcoal) test, rate of transit through the stomach and intestine; format: in vivo, mice; conditions: for Antispastic activity ED50: 120 min; for ED50: Mus musculus, 2 h; for Ratio 3/2: anti-secretive ED50 / anti-spastic ED50 (Table 3)
Procedure: Particularly marked is the anti-spastic activity which the present compounds exercise on the entire digestive system. Measured in the mouse, using the vegetable carbon test (rate of transit through the stomach and intestine), this activity is in some cases comparatively greater than the anti-secretive activity (Table 3).
(*)The antispastic activity is measured in mice of an average weight of […]
± 3 g by administering a suspension of charcoal in gum arabic and
checking after two hours whether the charcoal has reached the initial
portion of the colon. In non-treated subjects the charcoal reaches this
transit of the charcoal. Evaluation of the results is effected as
ED50 in mg/kg body weight of the animal, i.e., the dose at which the […]

[2] = tested on: gastric lesions from Indomethacin; experiment: Protective activity against gastric lesions due to Indomethacin; format: in vivo, rats; conditions: for Protective activity ED50: 240 min; for ED50: Rattus norvegicus, po, 4 h, read-out: Protective activity ED50
Procedure: The activity is defined as the dose in mg/kg of body weight to the animal, which prevents in 50% of the treated subjects arising of lesions due to Indomenthacin.
The protective preparations are administered orally in aqueous suspension.

gastric secretion [3] = experiment: Comparison of antisecretive activity, rats with tied pylorus, oral aqueous suspension; format: in vivo; conditions: for ED50: Rattus norvegicus, po, read-out: Antisecretive activity (dose which reduces the gastric secretion by 50%)
Procedure: (*)The antisecretive activity is defined as the dose in mg/kg of body
weight of the animal, which reduces the gastric secretion by 50%. The
evaluation is effected by considering the decrease in quantity of secrete
gastric juice as compared with controls. Rats of an average weight of 200
± 20 grams are employed of which the lower part of the stomach at the
level of the pylorus is tied to collect the gastric juice during the
indicated periods. The preparations are administered orally in the form o

Solubility = format: physicochemical; conditions: for Solubility in water: in words; for Solubility in water / solubility: water
gastric secretion [4] = experiment: Anti-secretive activity in the rat by gastric stimulus, oral; format: in vivo; conditions: oral (Table 1), read-out: Activity B: anti-secretive activity ED50
Procedure: *3 Anti-secretive activity in the rat by gastric stimulus, ED50 mg/k

[5] = Acute toxicity (DL50) in the mouse; format: in vivo; conditions: in vivo, iv (Table 1), read-out: DL50 value
Description: *1 DL50 in the mouse mg/kg iv.
Examples of differences between toxicity (DL50 in
the mouse) by intravenous administration and oral
administration in mg/kg. Variation in therapeutic

gastric secretion [6] = experiment: Anti-secretive activity in the rat with lig. pylorus, iv; format: in vivo
[7] = charcoal after two hours, orally (later Table 3)
[8] = oral, Indomethacin 16 mg/kg orally
[9] = mouse, vegetable carbon test (Table 3), read-out: Anti-spastic activity ED50
[10] = Rattus norvegicus, iv, compared with anti-spastic activity (Table 3), read-out: Anti-secretive activity ED50
[11] = rat with lig. pylorus, iv (Table 1), read-out: Activity A: anti-secretive activity ED50
[12] = po, charcoal after two hours, orally (later Table 3), read-out: Antispastic activity ED50
[13] = Rattus norvegicus, iv, read-out: Activity A: anti-secretive activity ED50

O=C(N[C@@H](Cc1c[nH]c2ccccc12)C(=O)O)c1ccc(Cl)cc1 [CR 501 magnesium salt, N-p-chloro-benzoyl-L-tryptophane magnesium salt]
Antispastic activity ED50 [1, 7]: 278 mg/kg | Protective activity ED50 [2, 8]: 162 mg/kg/os | Antisecretive activity (dose which reduces the gastric secretion by 50%) (gastric secretion [3]; oral, 2.5 hrs, 150 min): 230 mg/kg | Antisecretive activity (dose which reduces the gastric secretion by 50%) (gastric secretion [3]; oral, 5 hrs, 300 min): 180 mg/kg | Antisecretive activity (dose which reduces the gastric secretion by 50%) (gastric secretion [3]; oral, 10 hrs, 600 min): 146 mg/kg | Antisecretive activity (dose which reduces the gastric secretion by 50%) (gastric secretion [3]; oral, 15 hrs, 900 min): 135 mg/kg | Solubility in ethanol (Solubility; listed as Example 55): soluble | Solubility in methanol (Solubility; listed as Example 55): soluble | Solubility in water (Solubility; listed as Example 55): Very slightly soluble

O=C(N[C@@H](Cc1c[nH]c2ccccc12)C(=O)O)OCc1ccc(Cl)cc1 [CR 449 calcium salt, N-p-chloro-carbobenzoxy-L-tryptophane calcium salt]
Protective activity ED50 ([2]; oral, Indomethacin 16 mg/kg orally, calcium salt): 121 mg/kg/os | Antisecretive activity (dose which reduces the gastric secretion by 50%) (gastric secretion [3]; oral, 2.5 hrs, calcium salt, 150 min): 142 mg/kg | Antisecretive activity (dose which reduces the gastric secretion by 50%) (gastric secretion [3]; oral, 5 hrs, calcium salt, 300 min): 112 mg/kg | Antisecretive activity (dose which reduces the gastric secretion by 50%) (gastric secretion [3]; oral, 10 hrs, calcium salt, 600 min): 110 mg/kg | Antisecretive activity (dose which reduces the gastric secretion by 50%) (gastric secretion [3]; oral, 15 hrs, calcium salt, 900 min): 106 mg/kg | Solubility in ethanol (Solubility): soluble | Solubility in methanol (Solubility): soluble | Solubility in water (Solubility): Very slightly soluble

O=C(N[C@@H](Cc1c[nH]c2ccccc12)C(=O)[O-])c1ccc(Cl)cc1.[Na+]
ED50 ([1]; ip, read-out: Antispastic activity ED50): 82 mg/kg | ED50 ([1]; po, read-out: Antispastic activity ED50): 192 mg/kg | ED50 [2]: 210 mg/kg | ED50 (gastric secretion [3]; 2.5 h): 118 mg/kg | ED50 (gastric secretion [3]; 5 h): 141 mg/kg | ED50 (gastric secretion [3]; 10 h): 147 mg/kg | ED50 (gastric secretion [3]; 15 h): 410 mg/kg | Solubility in acetone (Solubility): Highly soluble | Solubility in ethanol (Solubility): Highly soluble | Solubility in methanol (Solubility): Highly soluble | solubility (Solubility): ~50 mg/mL

O=C(N[C@@H](Cc1c[nH]c2ccccc12)C(=O)O)OCc1ccccc1Cl [Ex. 3 (CR460), N-o-chloro-carbobenzoxy-L-tryptophane]
ED50 [1, 9]: 58 mg/kg | Ratio 3/2 [1]: 2.0 | ED50 (gastric secretion [4]): 267 mg/kg | LD50 ([5]; iv): 640 mg/kg | ED50 (gastric secretion [6]; [10]): 118 mg/kg | ED50 (gastric secretion [6]; [11]): 118 mg/kg

O=C(N[C@@H](Cc1c[nH]c2ccccc12)C(=O)O)c1ccccc1Cl [Ex.50 (CR617), N-o-chlorobenzoyl-L-tryptophane]
ED50 [1, 9]: 300 mg/kg | Ratio 3/2 [1]: 1 | ED50 (gastric secretion [4]): 255 mg/kg | LD50 [5]: 1270 mg/kg | ED50 (gastric secretion [6]; [10]): 299 mg/kg | ED50 (gastric secretion [6]; [11]): 299 mg/kg

O=C(N[C@@H](Cc1c[nH]c2ccccc12)C(=O)O)c1ccc(Cl)cc1 [CR 501 aluminium salt, N-p-chloro-benzoyl-L-tryptophane aluminium salt]
Antispastic activity ED50 [1, 7]: 270 mg/kg | Protective activity ED50 [2, 8]: 174 mg/kg/os | Antisecretive activity (dose which reduces the gastric secretion by 50%) (gastric secretion [3]; oral, 2.5 hrs, 150 min): 195 mg/kg | Antisecretive activity (dose which reduces the gastric secretion by 50%) (gastric secretion [3]; oral, 5 hrs, 300 min): 152 mg/kg | Antisecretive activity (dose which reduces the gastric secretion by 50%) (gastric secretion [3]; oral, 10 hrs, 600 min): 150 mg/kg | Antisecretive activity (dose which reduces the gastric secretion by 50%) (gastric secretion [3]; oral, 15 hrs, 900 min): 163 mg/kg | Solubility in ethanol (Solubility; listed as Example 56): Soluble | Solubility in methanol (Solubility; listed as Example 56): Soluble | Solubility in water (Solubility; listed as Example 56): very slightly soluble

O=C(N[C@@H](Cc1c[nH]c2ccccc12)C(=O)O)OCc1ccc(Br)cc1 [CR 451 - Calcium salt]
Antispastic activity ED50 [1, 7]: 393 mg/kg | Protective activity ED50 [2, 8]: 392 mg/kg/os | Antisecretive activity (dose which reduces the gastric secretion by 50%) (gastric secretion [3]; oral, 2.5 hrs, 150 min): 233 mg/kg | Antisecretive activity (dose which reduces the gastric secretion by 50%) (gastric secretion [3]; oral, 5 hrs, 300 min): 220 mg/kg | Antisecretive activity (dose which reduces the gastric secretion by 50%) (gastric secretion [3]; oral, 10 hrs, 600 min): 337 mg/kg | Antisecretive activity (dose which reduces the gastric secretion by 50%) (gastric secretion [3]; oral, 15 hrs, 900 min): 580 mg/kg

[OH][Al]([OH])[OH] [Aluminium hydroxide, reference compound]
Protective activity ([2]; 136mg/kg, oral): inactive

O=C(N[C@@H](Cc1c[nH]c2ccccc12)C(=O)O)OCc1ccc([N+](=O)[O-])cc1 [Ex.12 (CR438), N-p-nitro-carbobenzoxy-L-tryptophane]
ED50 [1, 12]: 870 mg/kg | ED50 (gastric secretion [4]): 195 mg/kg | ED50 [2, 8]: 990 mg/kg | LD50 ([5]; iv): 700 mg/kg | ED50 (gastric secretion [6]; [11]): 267 mg/kg | ED50 (gastric secretion [3]; 2.5 h, oral, 2.5 hrs): 475 mg/kg | ED50 (gastric secretion [3]; 5 h, oral, 5 hrs): 560 mg/kg | ED50 (gastric secretion [3]; 10 h, oral, 10 hrs): 980 mg/kg | ED50 (gastric secretion [3]; 15 h, oral, 15 hrs): > 1500 mg/kg

O=C(O)Cc1ccc(NC(=O)[C@H](Cc2c[nH]c3ccccc23)NC(=O)c2ccccc2)cc1 [Ex.41 (CR421), N-benzoyl-L-tryptophyl-p-aminophenylacetic acid]
ED50 [1, 9]: 170 mg/kg | Ratio 3/2 [1]: 2.0 | ED50 (gastric secretion [4]): 186 mg/kg | LD50 [5]: 1000 mg/kg | ED50 (gastric secretion [6]; [10]): 322 mg/kg | ED50 (gastric secretion [6]; [11]): 322 mg/kg

O=C(N[C@@H](Cc1c[nH]c2ccccc12)C(=O)O)OCc1ccc([N+](=O)[O-])cc1 [CR 438 - Calcium salt]
Antispastic activity ED50 [1, 7]: > 1000 mg/kg | Protective activity ED50 [2, 8]: > 1500 mg/kg/os | Antisecretive activity (dose which reduces the gastric secretion by 50%) (gastric secretion [3]; oral, 2.5 hrs, 150 min): 810 mg/kg | Antisecretive activity (dose which reduces the gastric secretion by 50%) (gastric secretion [3]; oral, 5 hrs, 300 min): 780 mg/kg | Antisecretive activity (dose which reduces the gastric secretion by 50%) (gastric secretion [3]; oral, 10 hrs, 600 min): 972 mg/kg

O=C([O-])[O-].[Ca+2] [Calcium carbonate, reference compound]
Protective activity ([2]; 140mg/kg, oral): inactive

Cc1ccc(C(=O)N[C@@H](Cc2c[nH]c3ccccc23)C(=O)O)cc1 [CR 510 - Calcium salt]
Antispastic activity ED50 [1, 7]: 725 mg/kg | Protective activity ED50 [2, 8]: 390 mg/kg/os | Antisecretive activity (dose which reduces the gastric secretion by 50%) (gastric secretion [3]; oral, 2.5 hrs, 150 min): 602 mg/kg | Antisecretive activity (dose which reduces the gastric secretion by 50%) (gastric secretion [3]; oral, 5 hrs, 300 min): 574 mg/kg | Antisecretive activity (dose which reduces the gastric secretion by 50%) (gastric secretion [3]; oral, 10 hrs, 600 min): 521 mg/kg | Antisecretive activity (dose which reduces the gastric secretion by 50%) (gastric secretion [3]; oral, 15 hrs, 900 min): 666 mg/kg

Nc1ccc(C(=O)N[C@@H](Cc2c[nH]c3ccccc23)C(=O)O)cc1 [Ex.28 (CR504), N-p-amino-benzoyl-L-tryptophane]
ED50 [1, 12]: > 1000 mg/kg | ED50 (gastric secretion [4]): 205 mg/kg | ED50 [2, 8]: > 1500 mg/kg | LD50 [5]: 1670 mg/kg | ED50 (gastric secretion [6]; [11]): 960 mg/kg | ED50 (gastric secretion [3]; 2.5 h, oral, 2.5 hrs): 1080 mg/kg | ED50 (gastric secretion [3]; 5 h, oral, 5 hrs): 1090 mg/kg | ED50 (gastric secretion [3]; 10 h, oral, 10 hrs): 1490 mg/kg | ED50 (gastric secretion [3]; 15 h, oral, 15 hrs): > 2000 mg/kg

CN(C)CCOC(=O)[C@H](Cc1c[nH]c2ccccc12)NC(=O)OCc1ccc(Cl)cc1 [Ex.48 (CR583), Dimethylaminoester of N-p-chlorocarbobenzoxy-L-trytophane hydrochloride]
ED50 (gastric secretion [4]): 121 mg/kg | LD50 ([5]; iv): 210 mg/kg | ED50 (gastric secretion [6]; [11]): 170 mg/kg

O=C(N[C@@H](Cc1c[nH]c2ccccc12)C(=O)[O-])OCc1ccc(Cl)cc1.[Na+]
Solubility in acetone (Solubility): Highly soluble | Solubility in ethanol (Solubility): Highly soluble | Solubility in methanol (Solubility): Highly soluble | solubility (Solubility): ~50 mg/mL

O=C(N[C@@H](Cc1c[nH]c2ccccc12)C(=O)O)c1ccc(C(F)(F)F)cc1 [Ex.20 (CR505), N-p-trifluoromethyl-benzoyl-L-tryptophane]
ED50 (gastric secretion [4]): 110 mg/kg | LD50 [5]: 210 mg/kg | ED50 (gastric secretion [6]; [13]): 160 mg/kg

N#Cc1ccc(COC(=O)N[C@@H](Cc2c[nH]c3ccccc23)C(=O)O)cc1 [Ex. 8 (CR496), N-p-cyano-carbobenzoxy-L-tryptophane]
ED50 (gastric secretion [4]): 340 mg/kg | LD50 ([5]; iv): 1070 mg/kg | ED50 (gastric secretion [6]; [13]): 202 mg/kg

O=C(Cc1ccc(Cl)cc1)N[C@@H](Cc1c[nH]c2ccccc12)C(=O)O [Ex.47 (CR584), N-p-chlorophenylacetyl-L-tryptophane]
ED50 (gastric secretion [4]): 270 mg/kg | LD50 [5]: 545 mg/kg | ED50 (gastric secretion [6]; [11]): 487 mg/kg

O=C(O)c1ccc(NC(=O)[C@H](Cc2c[nH]c3ccccc23)NC(=O)c2ccccc2)cc1 [Ex.42 (CR404), N-benzoyl-L-tryptophyl-p-aminobenzoic acid]
ED50 (gastric secretion [4]): 220 mg/kg | LD50 [5]: 500 mg/kg | ED50 (gastric secretion [6]; [11]): 284 mg/kg
